In patent publication US20210276967A1 (OSPEDALE SAN RAFFAELE S.R.L., priority 2018, published 2021):

Assays:
HBV = HBV inhibition in HepAD38 cells, extracellular HBV DNA by direct qPCR; format: cell-based, hepatitis B virus; conditions: Hepatitis B virus
Text: HepAD38 cell line (Ladner et al., Antimicrob Agents Chemother, 1997, 41, 1715-20) was used for HBV inhibition assays. HepAD38 is a subclone, derived from hepatoblastoma cell line HepG2 (ATCC® Number: HB-8065™), that expresses HBV genome under the transcriptional control of a tetracycline-responsive promoter in a TET-OFF system: addition of tetracycline (TET) or doxycycline suppresses HBV replication, while its removal switches on the process allowing HBV viral particles release in the cell supernatant. HepAD38 cell line is maintained in DMEM/F12, supplemented with 10% of fetal bovine serum, 1% of glutamine, 1% of penicillin/streptomycin, 0.4 mg/ml G418 and 0.3 ug/ml tetracycline. For the HBV inhibition assay, doxycycline-free medium is used in order to allow virion production.
HBV inhibition activity in vitro was performed in 96 multiwell plates. During the initial (primary) screening compounds were first tested in triplicates at concentrations of 0.1 μM, 0.5 μM and 1 μM. For selected compounds, an 8-point dose-response curve was obtained using 1:2 serial dilutions (starting from 2.5 μM, 1.25 μM or 0.4 μM, depending on the degree of inhibition observed during the primary screening). From the dose-response curves, half maximal effective concentration (EC50) could be calculated (see also below).
In more detail, compounds—typically dissolved in DMSO stock solutions—were diluted to 2× the final desired concentration in 100 μl of the above medium (without doxycycline) and plated in three replicates in the 96-well plates.
Simultaneously, HepAD38 cells—extensively pre-washed in tetracycline-free medium in order to induce HBV production—were suspended at 2*10^4 cells in 100 μl of tetracycline-free medium and added to each well of the plate, to yield a final assay volume of 200 μl.
DMSO, used for stock solutions and compounds dilutions, is always present in the assays at a final concentration of 0.5%.
Plates were then incubated 96 hours at 37° C. and then subjected to cell viability assays and extracellular HBV quantification, in order to evaluate both the cytotoxic potential and the anti-viral activity of compounds.
Cytotoxicity was assessed by a commercial fluorescence assay that measures the metabolic activity of cells, directly related to cell viability (Cell Titer Blue, Promega). For each compound, cytotoxicity was evaluated at the same concentration employed to evaluate its anti-HBV activity. Anti-HBV activity was evaluated by quantification of extracellular HBV DNA with direct qPCR. In particular, supernatant was collected and centrifuged for cell debris clarification, viral DNA was extracted from virions by addition of lysis buffer (1 mM 1,4-dithiothreitol, 0.2% sodium dodecyl sulphate) and incubated at 95° C. for 10 min. Samples were then diluted 1:40 and real time PCR amplification was performed with SYBR green assay (Power SYBR™ Green PCR Master Mix-Thermo Fisher Scientific) and specific HBV primer (HBV-DF:5′-[…]-3′ (SEQ ID No. 1), HBV-DR:5′-[…]-3′ (SEQ ID No. 2)).
All HBV inhibition or antiviral activity data are typically reported in percent (%) relative to a non-treated reference sample. Excel and Graphpad Prism programs are typically used for data elaboration and EC50 calculation.

[1] = Hepatocytes stability, mouse; format: in vitro ADME; conditions: data not shown
HBV genotype B = experiment: Antiviral activity in HepG2 cells transfected with HBV genotype B plasmid, extracellular HBV DNA qPCR; format: cell-based; conditions: Hepatitis B virus, HepG2, read-out: HBV inhibition EC50 (Mean ± StD, μM)
Procedure: (§1) HepG2 hepatoma cells transfected with HBV plasmids corresponding to the different isolates were used to perform antiviral assay against different HBV genotypes. HBV plasmids were obtained by cloning fragment containing of 1.1-mer HBV genome into the SacI/SaII sites of pcDNA3.1zeo(−) plasmid (V86520, Thermofisher Scientific). The HepG2 cell line was maintained in DMEM, supplemented with 10% of FBS, 1% glutamine and 1% penicillin/streptomycin.
(§2) HBV inhibition activity was determined on different HBV genotypes. For this purpose plasmids pcDNA3.1Zeo(−)-HBV1.1 expressing HBV genotypes A, B, C, D, E were transfected in HepG2 cell line and extracellular HBV quantification was performed by direct qPCR as described above. In detail, cells were seeded at 20,000 cells/well in polylisine coated 96-multiwell plates and 24 h later HBV plasmids were transfected with lipofection using manufacturer's procedure (Lipofectamine 3000 Reagent, Thermofisher Scientific). Five hours after transfection cells were extensively washed with PBS and compounds were added in 8-point dose-response curve in 0.5% DMSO as described above. After 4 days of incubation at 37° C. cells were subjected to cell viability assays and extracellular HBV quantification, in order to evaluate both the cytotoxic potential and the anti-viral activity of compounds, as described above. […]

HBV genotype E = experiment: Antiviral activity in HepG2 cells transfected with HBV genotype E plasmid, extracellular HBV DNA qPCR; format: cell-based; conditions: Hepatitis B virus, read-out: HBV inhibition EC50 (Mean ± StD)
Procedure: as §1, §2

Compound | inhibition at 0.5 µM (HBV; 0.5 μM, HepAD38, 96 hours, read-out: HBV inhibition % (conc μM)) [%] | stability in mouse hepatocytes [1] | EC50 (HBV; HepAD38, 8-point dose-response, read-out: HBV inh EC50) [nM] | EC50 (HBV genotype B) [µM] | EC50 (HBV genotype E) [nM]
Nc1ccc(C(=O)Nc2cc(F)c(F)c(F)c2)cc1S(N)(=O)=O [Example E3, 4-amino-3-sulfamoyl-N-(3,4,5-trifluorophenyl)benzamide] | > 50 | stable |  |  | 
Cc1cc(N)c(S(N)(=O)=O)cc1C(=O)Nc1cc(F)c(F)c(F)c1 [Example E17, 4-amino-2-methyl-5-sulfamoyl-N-(3,4,5-trifluorophenyl)benzamide] |  |  | < 1000 | 0.0498 ± 0.0179 | 51.2 ± 13.6
